From patent EP2017288A1, “Protease stabilized, pegylated insulin analogues” (NOVO NORDISK A/S, priority 2007, dated 2009)

Assay: Pulmonary delivery to rats (intratracheal drop instillation)
Type: in vivo, male Wistar rats
Conditions: statement in words; Fig. 1 is a rat intratracheal drop instillation of the insulin of example 1
Method: The test substance will be dosed pulmonary by the drop instillation method. In brief, male Wistar rats (app.250 g) are anaesthesized in app. […] fentanyl/dehydrodenzperidol/-dormicum given as a 6.6 ml/kg sc primingdose and followed by 3 maintainance doses of 3.3 ml/kg sc with an interval of 30 min. Ten minutes after the induction of anaesthesia, basal samples are obtained from the tail vein (t = -20 min) followed by a basal sample immediately prior to the dosing of test substance (t=0). At t=0, the test substance is dosed intra tracheally into one lung. A special cannula with rounded ending is mounted on a syringe containing the 200 ul air and test substance (1 ml/kg). Via the orifice, the cannula is introduced into the trachea and is forwarded into one of the main bronchi -just passing the bifurcature. During the insertion, the neck is palpated from the exterior to assure intratracheal positioning. The content of the syringe is injected followed by 2 sec pause. Thereafter, the cannula is slowly drawn back. The rats are kept anaesthesized during the test (blood samples for up to 4 or 8 hrs) and are euthanized after the experiment.

**Q.** For “A14E, B25H, B29K(N^ε-3-mdPEG24-Propionyl), desB30 human insulin [Example 1]”, which pulmonary efficacy is on record?
**A.** Its pulmonary efficacy is “substantial protracted pulmonary efficacy”.
